From patent publication US20230286970A1, “NOVEL OXADIAZOLE-BASED SELECTIVE HDAC6 INHIBITORS” (ITALFARMACO S.P.A., priority 2020, published 2023) come the findings set out here.

A value given as a limit tells only on which side of the number the result lay.

The target in assay [1] is recombinant human HDAC6 (Homo sapiens (Human), UniProt Q9UBN7). The experiment in a line: Enzymatic screening, HDAC6 inhibition (fluorogenic FdL_G substrate). The assay is classed as biochemical. As to the method: (§1) For each test compound, 100× concentrated DMSO solutions at 8 doses were prepared and then diluted in assay buffer (25 mM Tris-HCl, pH 8, 130 mM NaCl, 0.05% Tween-20, 10% Glycerol) to obtain 5× concentrated solutions in relation to the final concentrations (typical final concentration range—6.4-200000 nM or 0.18-50000 nM, final DMSO content—1%). Then 10 μL solution of each test compound concentration were placed on a 96-well plate in triplicate and 15 μL of 3.33× concentrated enzyme solution in the assay buffer containing 3.33× concentrated BSA (final BSA concentration—2 mg/mL for HDAC4, HDAC5 and HDAC9 or 1 mg/mL for other isoforms) and in the case of HDAC6-3.33× concentrated TCEP (final TCEP concentration—200 μM) were added to each well. After a period of preincubation (incubation times and temperatures vary for different isoforms and are shown in table 1) 25 μL of solution containing the substrate were added. As substrate, FLUOR DE LYS® deacetylase substrate (Enzo Life Sciences, cat: BML-KI104, FdL), FLUOR DE LYS®-Green substrate (Enzo Life Sciences, cat: BML-KI572, FdL_G) or Boc-Lys(Tfa)-AMC (Bachem, cat: 4060676.005, Tfal)—2× concentrated solution in assay buffer were used. Following a reaction period (reaction times and temperatures vary for different isoforms and are reported in Table 1), 50 μL of the development solution consisting of concentrate FLUOR DE LYS® developer I (Enzo Life Sciences, ca: BML-KI105), diluted 200 times in buffer (50 mM Tris-HCl, pH 8, 137 mM NaCl, 2.7 mM KCl, 1 mM MgCl2) plus 2 μM TSA was added and, after 25 minutes at room temperature in the dark, using the Victor 1420 Multilabel Counter Perkin Elmer Wallac instrument, the fluorescence reading was carried out.
Chain of recombinant human HDAC6 (Q9UBN7 whole entry, canonical isoform): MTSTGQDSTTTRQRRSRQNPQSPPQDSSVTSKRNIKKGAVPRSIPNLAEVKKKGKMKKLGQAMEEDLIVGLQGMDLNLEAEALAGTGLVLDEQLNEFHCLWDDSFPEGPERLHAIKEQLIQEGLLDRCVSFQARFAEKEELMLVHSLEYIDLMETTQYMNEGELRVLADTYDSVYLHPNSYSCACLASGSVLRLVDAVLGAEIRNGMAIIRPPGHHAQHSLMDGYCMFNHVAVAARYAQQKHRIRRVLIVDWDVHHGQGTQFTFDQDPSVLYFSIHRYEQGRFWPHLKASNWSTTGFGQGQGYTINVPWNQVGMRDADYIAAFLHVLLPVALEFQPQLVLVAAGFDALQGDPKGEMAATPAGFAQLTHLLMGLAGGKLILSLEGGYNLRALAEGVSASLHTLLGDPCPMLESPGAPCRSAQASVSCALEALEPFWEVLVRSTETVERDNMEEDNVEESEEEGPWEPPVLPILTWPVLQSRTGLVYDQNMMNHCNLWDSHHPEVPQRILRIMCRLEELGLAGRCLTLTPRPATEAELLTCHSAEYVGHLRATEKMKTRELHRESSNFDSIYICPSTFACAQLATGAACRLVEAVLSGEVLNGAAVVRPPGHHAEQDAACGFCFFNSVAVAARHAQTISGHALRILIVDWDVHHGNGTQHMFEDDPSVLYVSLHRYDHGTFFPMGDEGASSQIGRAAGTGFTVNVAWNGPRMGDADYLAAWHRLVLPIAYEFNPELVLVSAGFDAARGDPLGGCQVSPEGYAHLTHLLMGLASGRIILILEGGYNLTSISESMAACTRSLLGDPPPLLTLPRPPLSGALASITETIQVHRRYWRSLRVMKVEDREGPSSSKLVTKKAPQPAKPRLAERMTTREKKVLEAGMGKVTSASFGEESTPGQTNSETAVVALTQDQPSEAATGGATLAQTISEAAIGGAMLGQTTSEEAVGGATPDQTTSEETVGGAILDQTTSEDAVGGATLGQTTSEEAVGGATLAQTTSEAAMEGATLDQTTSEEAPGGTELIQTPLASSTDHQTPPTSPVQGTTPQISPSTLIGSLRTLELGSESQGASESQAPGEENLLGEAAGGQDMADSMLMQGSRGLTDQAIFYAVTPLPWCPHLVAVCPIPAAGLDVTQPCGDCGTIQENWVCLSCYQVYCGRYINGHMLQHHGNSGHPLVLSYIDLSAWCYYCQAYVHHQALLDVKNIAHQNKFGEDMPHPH

Assay [2] deals with recombinant human HDAC1 (Homo sapiens (Human), UniProt Q13547). The experiment in a line: Enzymatic screening, HDAC1 inhibition (fluorogenic FdL_G substrate). The class given is biochemical. As to the method: as §1
Chain of recombinant human HDAC1 (Q13547 whole entry): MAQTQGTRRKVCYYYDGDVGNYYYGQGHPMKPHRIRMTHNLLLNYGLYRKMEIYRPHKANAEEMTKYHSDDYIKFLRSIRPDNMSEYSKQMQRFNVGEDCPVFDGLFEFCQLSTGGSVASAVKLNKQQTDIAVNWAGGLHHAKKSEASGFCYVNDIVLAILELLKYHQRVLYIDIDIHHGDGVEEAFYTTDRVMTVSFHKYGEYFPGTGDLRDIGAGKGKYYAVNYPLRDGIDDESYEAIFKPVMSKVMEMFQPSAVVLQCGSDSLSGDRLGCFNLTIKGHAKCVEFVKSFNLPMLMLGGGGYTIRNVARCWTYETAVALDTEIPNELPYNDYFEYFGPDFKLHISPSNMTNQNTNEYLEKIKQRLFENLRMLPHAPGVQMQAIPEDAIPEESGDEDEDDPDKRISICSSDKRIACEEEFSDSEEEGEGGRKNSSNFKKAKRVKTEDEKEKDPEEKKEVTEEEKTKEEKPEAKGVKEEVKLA

The term IC50 denotes the concentration that gives 50% inhibition. As to `Cn1c(Sc2ccc(-c3nnc(C(F)F)o3)cc2)nnc1-c1ccc(N)nc1` [compound 285, 5-(5-((4-(5-(difluoromethyl)-1,3,4-oxadiazol-2-yl)phenyl)thio)-4-methyl-4H-1,2,4-triazol-3-yl)pyridin-2-amine], the IC50 in assay [1] is 491 nM; in assay [2], above 200000 nM.
In the same order, the values of `Fc1ccccc1-c1nnn(Cc2ccc(-c3nnc(C(F)F)o3)cc2)n1` [compound 181, 2-(difluoromethyl)-5-(4-((5-(2-fluorophenyl)-2H-tetrazol-2-yl)methyl)phenyl)-1,3,4-oxadiazole] are 92 nM and above 200000 nM.
In the same order, the values of `CNc1ccc2cc(-c3nnn(Cc4ccc(-c5nnc(C(F)F)o5)cc4F)n3)ccc2n1` [compound 401, 6-[2-[[4-[5-(difluoromethyl)-1,3,4-oxadiazol-2-yl]-2-fluorophenyl]methyl]tetrazol-5-yl]-N-methylquinolin-2-amine] are 144 nM and 1e+06 nM.
As for `Cn1c(N)nc2cc(-c3nnnn3Cc3ncc(-c4nnc(C(F)F)o4)cn3)ccc21` [compound 291, 5-(1-((5-(5-(difluoromethyl)-1,3,4-oxadiazol-2-yl)pyrimidin-2-yl)methyl)-1H-tetrazol-5-yl)-1-methyl-1H-benzo[d]imidazol-2-amine], the results for the concentration for half-maximal inhibition (IC50) in assay [1] and in assay [2] were 129 nM and above 200000 nM, respectively.
On to `Nc1ccc(-c2cn(Cc3ccc(-c4nnc(C(F)F)o4)cc3)nn2)cc1` [compound 121, 4-(1-(4-(5-(difluoromethyl)-1,3,4-oxadiazol-2-yl)benzyl)-1H-1,2,3-triazol-4-yl)aniline], for which the figures for the IC50 in assay [1] and in assay [2] were 45 nM and above 200000 nM, respectively.
Take `CN(Cc1ccncc1)Cc1ccc(-c2cn(Cc3c(F)cc(-c4nnc(C(F)F)o4)cc3F)nn2)cc1` [compound 179, N-(4-(1-(4-(5-(difluoromethyl)-1,3,4-oxadiazol-2-yl)-2,6-difluorobenzyl)-1H-1,2,3-triazol-4-yl)benzyl)-N-methyl-1-(pyridin-4-yl)methanamine]: the figures for the IC50 in assay [1] and in assay [2] were 90 nM and above 200000 nM, respectively.
On to `Nc1cc(-c2nnn(Cc3ccc(-c4nnc(C(F)F)o4)cc3)n2)ccc1O` [compound 35, 2-amino-4-(2-(4-(5-(difluoromethyl)-1,3,4-oxadiazol-2-yl)benzyl)-2H-tetrazol-5-yl)phenol], for which the 50% inhibitory concentration (IC50) in assay [1] is 16 nM; in assay [2], above 200000 nM.
In the case of `CN1CC(C(=O)Nc2cccc(-c3cn(Cc4c(F)cc(-c5nnc(C(F)F)o5)cc4F)nn3)c2)C1` [Compd. 86, N-(3-(1-(4-(5-(difluoromethyl)-1,3,4-oxadiazol-2-yl)-2,6-difluorobenzyl)-1H-1,2,3-triazol-4-yl)phenyl)-1-methylazetidine-3-carboxamide], the 50% inhibitory concentration (IC50) is 34 nM in assay [1] and above 200000 nM in assay [2].
In the same order, the values of `FC(F)c1nnc(-c2ccc(Cn3nnc(-c4cccc(-c5nc6c([nH]5)CCNC6)c4)n3)nc2)o1` [compound 276, 2-(difluoromethyl)-5-(6-((5-(3-(4,5,6,7-tetrahydro-1H-imidazo[4,5-c]pyridin-2-yl)phenyl)-2H-tetrazol-2-yl)methyl)pyridin-3-yl)-1,3,4-oxadiazole] are 9 nM and 165000 nM.
The matching figures for `Nc1cccc(-c2cn(Cc3c(F)cc(-c4nnc(C(F)F)o4)cc3F)nn2)c1` [compound 297, 3-(1-(4-(5-(difluoromethyl)-1,3,4-oxadiazol-2-yl)-2,6-difluorobenzyl)-1H-1,2,3-triazol-4-yl)aniline]: 37 nM and 65000 nM.
Regarding `[2H]C([2H])(c1cc(F)c(-c2nnc(C(F)F)o2)cc1F)n1cc(-c2ccc(N)nc2)nn1` [compound 381, 5-[1-[dideuterio-[4-[5-(difluoromethyl)-1,3,4-oxadiazol-2-yl]-2,5-difluorophenyl]methyl]triazol-4-yl]pyridin-2-amine], the IC50 is 28 nM in assay [1] and above 1e+06 nM in assay [2].
The matching figures for `FC(F)c1nnc(-c2ccc(Cn3cc(-c4cnc5cccnn45)nn3)cc2)o1` [compound 280, 2-(difluoromethyl)-5-(4-((4-(imidazo[1,2-b]pyridazin-3-yl)-1H-1,2,3-triazol-1-yl)methyl)phenyl)-1,3,4-oxadiazole]: 89 nM and above 200000 nM.
The matching figures for `O=C1Cc2cc(-c3cn(Cc4ccc(-c5nnc(C(F)F)o5)cn4)nn3)ccc2N1` [compound 325, 5-[1-[[5-[5-(difluoromethyl)-1,3,4-oxadiazol-2-yl]pyridin-2-yl]methyl]triazol-4-yl]-1,3-dihydroindol-2-one]: 26 nM and above 1e+06 nM.
The matching figures for `Nc1ccc(-c2cn(C(Cc3ccc(Cl)cc3)c3ccc(-c4nnc(C(F)F)o4)cc3)nn2)cn1` (centres unmarked) [Compd. 231, 5-(1-(2-(4-chlorophenyl)-1-(4-(5-(difluoromethyl)-1,3,4-oxadiazol-2-yl)phenyl)ethyl)-1H-1,2,3-triazol-4-yl)pyridin-2-amine]: 197 nM and above 200000 nM.
Take `O=C(Nc1ccc(-c2cn(Cc3ncc(-c4nnc(C(F)F)o4)cn3)nn2)cn1)C(F)F` [Compd. 88, N-(5-(1-((5-(5-(difluoromethyl)-1,3,4-oxadiazol-2-yl)pyrimidin-2-yl)methyl)-1H-1,2,3-triazol-4-yl)pyridin-2-yl)-2,2-difluoroacetamide]: the concentration for half-maximal inhibition (IC50) in assay [1] was 34 nM; in assay [2], above 200000 nM.
As for `Nc1cc2cc(-c3cn(Cc4ccc(-c5nnc(C(F)F)o5)cc4Cl)nn3)ccc2cn1` [compound 404, 6-(1-(2-chloro-4-(5-(difluoromethyl)-1,3,4-oxadiazol-2-yl)benzyl)-1H-1,2,3-triazol-4-yl)isoquinolin-3-amine], the values for the IC50 in assay [1] and in assay [2] were 178 nM and 1e+06 nM, respectively.
Take `[2H]C([2H])(c1ccc(-c2nnc(C(F)F)o2)cc1)n1cc(-c2ccc(N)nc2)nn1` [compound 356, 5-[1-[dideuterio-[4-[5-(difluoromethyl)-1,3,4-oxadiazol-2-yl]phenyl]methyl]triazol-4-yl]pyridin-2-amine]: the figures for the IC50 in assay [1] and in assay [2] were 43 nM and above 1e+06 nM, respectively.
Turning to `Nc1cc(-c2nnn(Cc3c(F)cc(-c4nnc(C(F)F)o4)cc3F)n2)ccc1OC(=O)N1CCOCC1` [compound 160, 2-amino-4-(2-(4-(5-(difluoromethyl)-1,3,4-oxadiazol-2-yl)-2,6-difluorobenzyl)-2H-tetrazol-5-yl)phenyl morpholine-4-carboxylate], the 50% inhibitory concentration (IC50) in assay [1] is 74 nM; in assay [2] it was above 200000 nM.
Turning to `CNC(=O)Nc1ccc(-c2nnc(Cc3ccc(-c4nnc(C(F)F)o4)cc3)o2)cn1` [compd. 170, 1-(5-(5-(4-(5-(difluoromethyl)-1,3,4-oxadiazol-2-yl)benzyl)-1,3,4-oxadiazol-2-yl)pyridin-2-yl)-3-methylurea], the IC50 in assay [1] is 81 nM; in assay [2], above 200000 nM.
In the same order, the values of `CNc1ncc2cc(-c3cn(Cc4cc(F)c(-c5nnc(C(F)F)o5)cc4F)nn3)ccc2n1` [compound 391, 6-[1-({4-[5-(difluoromethyl)-1,3,4-oxadiazol-2-yl]-2,5-difluorophenyl}methyl)-1H-1,2,3-triazol-4-yl]-N-methylquinazolin-2-amine] are 217 nM and 1e+06 nM.
`O=C(Nc1cccc(-c2nnn(Cc3ccc(-c4nnc(C(F)F)o4)cc3)n2)c1)N1CCOCC1` [compound 71, N-(3-(2-(4-(5-(difluoromethyl)-1,3,4-oxadiazol-2-yl)benzyl)-2H-tetrazol-5-yl)phenyl)morpholine-4-carboxamide]: the concentration for half-maximal inhibition (IC50) in assay [1] is 30 nM; in assay [2] it was above 200000 nM.
As for `NC(=O)c1cccc(-c2nc(Cc3ccc(-c4nnc(C(F)F)o4)cc3)no2)c1` [compound 262, 3-(3-(4-(5-(difluoromethyl)-1,3,4-oxadiazol-2-yl)benzyl)-1,2,4-oxadiazol-5-yl)benzamide], the values for the IC50 in assay [1] and in assay [2] were 488 nM and above 200000 nM, respectively.
As to `Cn1c(N)nc2cc(-c3cn(Cc4ccc(-c5nnc(C(F)F)o5)c(F)c4)nn3)ccc21` [compound 346, 5-[1-[[4-[5-(difluoromethyl)-1,3,4-oxadiazol-2-yl]-3-fluorophenyl]methyl]triazol-4-yl]-1-methylbenzimidazol-2-amine], the IC50 in assay [1] was 26 nM; in assay [2], above 1e+06 nM.
As for `Cn1c(N)nc2cc(-c3nnn(Cc4cc(F)c(-c5nnc(C(F)F)o5)cc4F)n3)ccc21` [compound 372, 5-[2-[[4-[5-(difluoromethyl)-1,3,4-oxadiazol-2-yl]-2,5-difluorophenyl]methyl]tetrazol-5-yl]-1-methylbenzimidazol-2-amine], the values for the IC50 in assay [1] and in assay [2] were 19 nM and above 1e+06 nM, respectively.
The matching figures for `FC(F)c1nnc(-c2ccc(Cn3nnc(-c4ccc(CN5CCCCC5)cc4)n3)cc2)o1` [compound 87, 2-(difluoromethyl)-5-(4-((5-(4-(piperidin-1-ylmethyl)phenyl)-2H-tetrazol-2-yl)methyl)phenyl)-1,3,4-oxadiazole]: 34 nM and above 200000 nM.
